# Experimental data: article PMC4383465 (European journal of pharmacology, 2014)
# Values joined by “and” are separate entries in the source; they are usually repeats but may differ in a detail not shown here. Identical values can stand only once. Marks after values point to notes of the source that are not given here.
# How the values were obtained:
# [1] = biological target: cannabinoid type-1 receptors endogenously expressed in Neuro2A cells (Mus musculus, UniProt P47746); assay: Intracellular cAMP levels; type: cell-based; conditions: for CB1R intrinsic activity: modulation of AC-activity compared to full agonist CP-55,940; for effect on intracellular cAMP compared to basal levels: 10 μM
# [2] = biological target: cannabinoid type-1 receptors (Mus musculus, UniProt P47746); conditions: read-out: [3H]CP binding Ki, ref Brents et al., 2011; cited from earlier work
# [3] = biological target: human cannabinoid type-2 receptors stably expressed in CHO-hCB2 cells (Homo sapiens, UniProt P34972); assay: Intracellular cAMP levels; type: cell-based; conditions: for CB2R intrinsic activity: modulation of AC-activity compared to full agonist CP-55,940
# [4] = biological target: human cannabinoid type-2 receptors (Homo sapiens, UniProt P34972); type: binding; conditions: for Selectivity CB1/CB2: CB1-Ki value divided CB2-Ki value
# [5] = after oral delivery, plasma; ref Al-Ghananeem et al., 2007; cited from earlier work
# [6] = up to a dose of 120 mg/kg; ref Geng et al., 2009; cited from earlier work
# human cannabinoid type-2 receptors, sequence (P34972 whole entry): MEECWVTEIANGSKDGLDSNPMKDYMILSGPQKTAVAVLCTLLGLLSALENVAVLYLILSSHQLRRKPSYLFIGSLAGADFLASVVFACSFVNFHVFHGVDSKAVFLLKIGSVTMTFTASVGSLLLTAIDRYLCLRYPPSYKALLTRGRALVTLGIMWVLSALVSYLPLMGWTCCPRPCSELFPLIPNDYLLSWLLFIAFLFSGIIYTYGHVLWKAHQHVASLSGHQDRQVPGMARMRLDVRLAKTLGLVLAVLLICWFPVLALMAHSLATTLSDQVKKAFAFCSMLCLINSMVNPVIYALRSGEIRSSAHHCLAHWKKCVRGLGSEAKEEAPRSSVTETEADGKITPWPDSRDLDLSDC
# human cannabinoid type-2 receptors stably expressed in CHO-hCB2 cells, sequence (P34972 whole entry): as above
# cannabinoid type-1 receptors endogenously expressed in Neuro2A cells, sequence (P47746 whole entry): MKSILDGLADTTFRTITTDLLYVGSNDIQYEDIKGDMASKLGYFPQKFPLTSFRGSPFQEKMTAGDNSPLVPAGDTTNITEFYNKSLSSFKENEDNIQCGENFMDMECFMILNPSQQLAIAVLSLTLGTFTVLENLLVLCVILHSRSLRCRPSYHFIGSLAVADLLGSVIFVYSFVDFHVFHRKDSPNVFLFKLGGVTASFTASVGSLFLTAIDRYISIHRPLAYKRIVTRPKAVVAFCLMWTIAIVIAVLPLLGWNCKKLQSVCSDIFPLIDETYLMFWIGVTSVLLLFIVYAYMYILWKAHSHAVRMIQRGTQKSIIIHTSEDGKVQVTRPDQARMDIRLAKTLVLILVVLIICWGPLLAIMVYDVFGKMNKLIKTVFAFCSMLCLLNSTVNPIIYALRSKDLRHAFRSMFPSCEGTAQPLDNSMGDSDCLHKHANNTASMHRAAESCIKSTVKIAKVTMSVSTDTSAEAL
# cannabinoid type-1 receptors, sequence (P47746 whole entry): as above
Compound,"reduction in intracellular cAMP levels when administered alone ([1]; EC90 concentration (10 nM), Neuro2A cells)","Adenylyl Cyclase Inhibition Imax (% Inhibition) ([1]; concentration-effect curve, intact Neuro2A cells, 10 μM forskolin)",CB1R intrinsic activity [1],"decrease in intracellular cAMP levels ([1]; screen, 1 μM, Neuro2A cells)",Ki [2] [nM],intrinsic activity from full concentration-effect curves ([3]; CHO-hCB2 cells),"Adenylyl Cyclase Inhibition Imax (% Inhibition) ([3]; concentration-effect curve, intact CHO-hCB2 cells, negative = increase in cAMP)",CB2R intrinsic activity [3],"effect on intracellular cAMP compared to basal levels ([1]; screen, Neuro2A cells)",Selectivity CB1/CB2 [4],selectivity for binding to cannabinoid type-2 relative to type-1 receptors [4] [fold],AUC [5] [ng·kg·min/mL/mg],average Cmax [5],acute toxicity [6],"increase in cAMP concentrations above basal levels ([3]; screen, 10 μM, CHO-hCB2 cells)"
"CCCCCCC(C)(C)c1ccc([C@@H]2C[C@H](O)CC[C@H]2CCCO)c(O)c1 [CP-55,940, reference compound]",45.7 +/− 3.7%,42.4±3.8 % Inhibition and 42.4 ± 3.8^a % Inhibition,Agonist,64.1 +/− 1.6%,0.26 ± 0.1,–,–,–,–,–,–,–,–,–,–
O=C1/C(=C/c2cn(Cc3ccc(Cl)cc3)c3ccccc23)N2CCC1CC2 [Compound 1],–,–,Neutral Antagonist,–,–,full agonists,"63.0 ± 5.2^a,b % Inhibition",Agonist,did not significantly alter cAMP concentrations,1.56,–,–,–,–,–
"OC1/C(=C/c2cn(Cc3ccccc3)c3ccccc23)N2CCC1CC2 (centres unmarked) [Compound 8, (Z)-2-((1-benzyl-1H-indol-3-yl)methylene)quinuclidin-3-ol]",–,–,Neutral Antagonist,–,–,–,–,Agonist,did not significantly alter cAMP concentrations,–,10,3561 ± 670,"1,710 ± 503 ng/ml",did not produce any acute toxicity,–
COC(=O)c1ccc(Cn2cc(/C=C3/C(=O)C4CCN3CC4)c3ccccc32)cc1 [Compound 4],–,–,Inverse Agonist,–,–,–,–,Inverse Agonist,significant elevations in intracellular cAMP above basal levels,1.62,–,–,–,–,278 +/− 38.6%
